Data from ChEMBL document CHEMBL1136216, “Potent quinoxaline-based inhibitors of PDGF receptor tyrosine kinase activity. Part 2: the synthesis and biological activities of RPR127963 an orally bioavailable inhibitor” (Bioorg Med Chem Lett, 2003).
Each block holds one molecule with its values, some of them ahead of it.

Columns and labels:
[1] = system: HASMC; assay: Inhibition of mitogenesis in human aortic smooth muscle cells (HASMC); format: functional, cell-based
[2] = biological target: T1, Platelet-derived growth factor receptor (Homo sapiens, UniProt P09619+P16234); assay: Inhibition of Platelet-derived growth factor receptor; format: protein-complex assay
[3] = Bioavailability in rat after 1 day dosing; format: ADME, organism-based; settings: in vivo
[4] = Bioavailability in rat after 4 day dosing; format: ADME, organism-based; settings: in vivo
[5] = biological target: T1, Platelet-derived growth factor receptor; assay: Inhibition of Platelet-derived growth factor receptor at 10 uM; format: protein-complex assay
[6] = biological target: T2, Tyrosine-protein kinase ZAP-70 (Homo sapiens) (UniProt P43403); assay: Inhibition of Zeta-chain (TCR) associated protein kinase 70kDa, Zap70 at 10 uM
T2 sequence (whole entry): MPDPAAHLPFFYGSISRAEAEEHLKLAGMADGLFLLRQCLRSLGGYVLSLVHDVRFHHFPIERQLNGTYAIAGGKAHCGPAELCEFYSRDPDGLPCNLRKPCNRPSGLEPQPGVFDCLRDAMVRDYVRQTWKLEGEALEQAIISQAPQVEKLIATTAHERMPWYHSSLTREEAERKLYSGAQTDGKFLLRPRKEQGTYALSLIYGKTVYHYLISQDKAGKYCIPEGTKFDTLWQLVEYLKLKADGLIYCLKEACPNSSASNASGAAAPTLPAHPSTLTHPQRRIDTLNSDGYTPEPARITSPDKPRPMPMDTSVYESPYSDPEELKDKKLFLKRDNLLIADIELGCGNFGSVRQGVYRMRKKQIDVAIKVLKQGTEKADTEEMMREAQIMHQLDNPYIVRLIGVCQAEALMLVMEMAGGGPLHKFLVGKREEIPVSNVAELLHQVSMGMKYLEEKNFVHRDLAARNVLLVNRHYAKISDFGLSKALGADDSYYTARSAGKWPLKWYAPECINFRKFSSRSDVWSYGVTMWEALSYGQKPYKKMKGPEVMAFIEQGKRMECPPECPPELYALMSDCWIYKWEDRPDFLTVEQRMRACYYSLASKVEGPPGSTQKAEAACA

[7] = % Bioavailability after 4 day of the drug administration in rats; format: ADME, organism-based; settings: rat, in vivo
[8] = biological target: cAMP-dependent protein kinase (PKA) (Homo sapiens) (UniProt P22694+P17612+P22612); assay: Inhibition of Protein kinase A at 100 uM; format: protein assay
[9] = biological target: c-Jun N-terminal kinase, JNK (Homo sapiens, UniProt P45983+P53779+P45984); assay: Inhibition of JNK, c-Jun N-terminal kinase; format: protein assay
[10] = biological target: T3, Tyrosine-protein kinase JAK3 (Homo sapiens, UniProt P52333); assay: Inhibition of Janus kinase 3
T3 sequence (P52333 whole entry): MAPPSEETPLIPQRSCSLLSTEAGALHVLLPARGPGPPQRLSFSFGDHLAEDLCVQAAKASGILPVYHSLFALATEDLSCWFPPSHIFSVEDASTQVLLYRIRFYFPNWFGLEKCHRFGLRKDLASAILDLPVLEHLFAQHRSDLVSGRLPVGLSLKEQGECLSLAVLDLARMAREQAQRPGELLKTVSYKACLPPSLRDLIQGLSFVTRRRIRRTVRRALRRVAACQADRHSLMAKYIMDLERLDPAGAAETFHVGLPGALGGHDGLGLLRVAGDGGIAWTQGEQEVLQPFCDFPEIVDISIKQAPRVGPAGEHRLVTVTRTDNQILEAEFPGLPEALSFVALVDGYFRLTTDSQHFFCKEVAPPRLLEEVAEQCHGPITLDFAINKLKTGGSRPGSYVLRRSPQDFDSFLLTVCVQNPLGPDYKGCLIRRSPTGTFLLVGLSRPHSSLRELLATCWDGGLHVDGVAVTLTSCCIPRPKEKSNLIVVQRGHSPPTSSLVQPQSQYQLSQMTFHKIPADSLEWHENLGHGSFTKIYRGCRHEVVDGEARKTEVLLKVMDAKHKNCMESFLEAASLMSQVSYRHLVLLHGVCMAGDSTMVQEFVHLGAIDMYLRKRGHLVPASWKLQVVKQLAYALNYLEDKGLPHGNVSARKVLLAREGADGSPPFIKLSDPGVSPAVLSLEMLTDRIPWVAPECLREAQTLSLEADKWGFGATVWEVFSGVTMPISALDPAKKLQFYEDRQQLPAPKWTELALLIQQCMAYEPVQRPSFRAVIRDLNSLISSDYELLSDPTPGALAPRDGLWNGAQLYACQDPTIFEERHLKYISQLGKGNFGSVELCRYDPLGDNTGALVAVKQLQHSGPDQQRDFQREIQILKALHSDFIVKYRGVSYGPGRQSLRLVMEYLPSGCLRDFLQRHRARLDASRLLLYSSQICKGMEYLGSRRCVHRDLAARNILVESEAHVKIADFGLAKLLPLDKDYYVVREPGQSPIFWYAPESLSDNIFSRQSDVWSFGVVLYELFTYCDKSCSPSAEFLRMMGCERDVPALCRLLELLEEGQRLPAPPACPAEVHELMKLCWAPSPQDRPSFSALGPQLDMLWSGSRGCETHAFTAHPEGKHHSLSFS

[11] = % Bioavailability after 1 day of the drug administration in rats; format: ADME, organism-based; settings: rat, in vivo
[12] = biological target: Macrophage colony-stimulating factor 1 receptor (Homo sapiens) (UniProt P07333); assay: Inhibition of Colony stimulating factor 1 receptor at 30 uM
Chain of Macrophage colony-stimulating factor 1 receptor (Homo sapiens) (P07333 whole entry): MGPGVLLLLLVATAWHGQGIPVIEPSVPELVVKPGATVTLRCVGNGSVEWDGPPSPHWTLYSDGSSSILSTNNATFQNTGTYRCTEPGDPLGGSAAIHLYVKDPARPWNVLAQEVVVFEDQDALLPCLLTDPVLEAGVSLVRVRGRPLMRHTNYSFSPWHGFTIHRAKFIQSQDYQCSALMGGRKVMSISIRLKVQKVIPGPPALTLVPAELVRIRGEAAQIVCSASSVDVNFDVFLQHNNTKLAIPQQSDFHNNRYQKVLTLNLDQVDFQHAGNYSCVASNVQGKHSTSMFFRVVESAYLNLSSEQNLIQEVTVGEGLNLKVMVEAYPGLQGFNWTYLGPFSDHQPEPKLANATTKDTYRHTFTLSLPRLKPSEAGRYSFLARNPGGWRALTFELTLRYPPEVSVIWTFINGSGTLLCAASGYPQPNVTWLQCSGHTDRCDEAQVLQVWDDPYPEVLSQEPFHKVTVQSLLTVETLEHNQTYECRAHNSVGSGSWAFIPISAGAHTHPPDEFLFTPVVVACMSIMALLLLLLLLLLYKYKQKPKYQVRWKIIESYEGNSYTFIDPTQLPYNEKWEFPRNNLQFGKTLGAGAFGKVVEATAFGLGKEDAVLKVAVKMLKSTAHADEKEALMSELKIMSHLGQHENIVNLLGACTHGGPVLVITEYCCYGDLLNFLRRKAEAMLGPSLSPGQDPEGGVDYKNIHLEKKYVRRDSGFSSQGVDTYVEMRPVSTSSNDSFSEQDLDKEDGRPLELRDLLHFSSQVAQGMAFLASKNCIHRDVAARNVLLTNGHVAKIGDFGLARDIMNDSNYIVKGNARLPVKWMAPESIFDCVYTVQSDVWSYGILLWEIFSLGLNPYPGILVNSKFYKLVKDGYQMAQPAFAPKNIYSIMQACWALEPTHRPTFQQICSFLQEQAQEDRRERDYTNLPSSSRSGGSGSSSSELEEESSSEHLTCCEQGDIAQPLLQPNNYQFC

[13] = biological target: Protein kinase C (PKC) (Homo sapiens) (UniProt O94806+P41743+P17252+P05129+Q05655+P05771+Q05513+Q02156+P24723+Q15139+Q04759); assay: Inhibition of Protein kinase C at 100 uM; format: protein assay
[14] = biological target: Hepatocyte growth factor receptor (Homo sapiens) (UniProt P08581); assay: Inhibition of Hepatocyte growth factor receptor at 30 uM; format: cell-based
Chain of Hepatocyte growth factor receptor (Homo sapiens) (P08581 whole entry): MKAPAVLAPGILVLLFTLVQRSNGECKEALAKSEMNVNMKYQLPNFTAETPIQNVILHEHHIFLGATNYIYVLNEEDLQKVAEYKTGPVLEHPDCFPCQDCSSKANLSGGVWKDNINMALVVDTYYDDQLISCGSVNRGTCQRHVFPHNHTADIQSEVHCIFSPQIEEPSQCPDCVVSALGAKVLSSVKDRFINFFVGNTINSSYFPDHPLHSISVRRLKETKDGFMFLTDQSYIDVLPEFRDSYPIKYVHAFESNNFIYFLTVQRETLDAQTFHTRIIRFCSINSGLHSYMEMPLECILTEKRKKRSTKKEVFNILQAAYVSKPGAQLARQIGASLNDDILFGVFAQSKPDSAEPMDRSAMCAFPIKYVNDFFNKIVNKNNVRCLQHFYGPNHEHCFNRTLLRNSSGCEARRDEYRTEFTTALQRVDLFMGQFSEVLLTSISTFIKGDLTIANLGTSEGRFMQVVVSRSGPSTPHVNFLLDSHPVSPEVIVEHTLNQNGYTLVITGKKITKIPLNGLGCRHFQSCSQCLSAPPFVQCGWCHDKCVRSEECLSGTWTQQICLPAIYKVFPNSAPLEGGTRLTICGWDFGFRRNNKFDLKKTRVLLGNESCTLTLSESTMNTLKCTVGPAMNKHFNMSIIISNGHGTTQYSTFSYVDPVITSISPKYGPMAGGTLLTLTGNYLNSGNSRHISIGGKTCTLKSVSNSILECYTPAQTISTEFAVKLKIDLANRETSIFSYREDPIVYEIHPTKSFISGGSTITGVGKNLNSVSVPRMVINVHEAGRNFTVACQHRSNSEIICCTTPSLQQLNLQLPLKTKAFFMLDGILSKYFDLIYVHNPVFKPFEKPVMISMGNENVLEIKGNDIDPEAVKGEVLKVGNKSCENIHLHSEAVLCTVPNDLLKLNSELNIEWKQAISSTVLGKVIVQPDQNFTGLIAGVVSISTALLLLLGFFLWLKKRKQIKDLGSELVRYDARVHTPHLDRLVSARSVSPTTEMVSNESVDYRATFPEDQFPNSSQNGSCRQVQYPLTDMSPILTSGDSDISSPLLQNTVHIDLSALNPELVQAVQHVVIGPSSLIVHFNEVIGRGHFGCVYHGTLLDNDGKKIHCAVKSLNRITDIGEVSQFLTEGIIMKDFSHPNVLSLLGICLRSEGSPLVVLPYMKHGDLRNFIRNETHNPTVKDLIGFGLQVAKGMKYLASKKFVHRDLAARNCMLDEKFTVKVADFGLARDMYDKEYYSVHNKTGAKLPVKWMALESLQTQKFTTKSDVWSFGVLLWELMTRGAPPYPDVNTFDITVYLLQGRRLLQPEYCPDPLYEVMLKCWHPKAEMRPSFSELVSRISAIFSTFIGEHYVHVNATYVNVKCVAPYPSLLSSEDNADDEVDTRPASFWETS

[15] = biological target: Vascular endothelial growth factor receptor (Homo sapiens) (UniProt P17948+P35916+P35968); assay: Inhibition of VEGF receptor kinase at 30 uM; format: protein assay
[16] = biological target: Insulin-like growth factor 1 receptor (Homo sapiens, UniProt P08069); assay: Inhibitory concentration against IGF kinase was determined.
Chain of Insulin-like growth factor 1 receptor (P08069 31-736 limits assumed): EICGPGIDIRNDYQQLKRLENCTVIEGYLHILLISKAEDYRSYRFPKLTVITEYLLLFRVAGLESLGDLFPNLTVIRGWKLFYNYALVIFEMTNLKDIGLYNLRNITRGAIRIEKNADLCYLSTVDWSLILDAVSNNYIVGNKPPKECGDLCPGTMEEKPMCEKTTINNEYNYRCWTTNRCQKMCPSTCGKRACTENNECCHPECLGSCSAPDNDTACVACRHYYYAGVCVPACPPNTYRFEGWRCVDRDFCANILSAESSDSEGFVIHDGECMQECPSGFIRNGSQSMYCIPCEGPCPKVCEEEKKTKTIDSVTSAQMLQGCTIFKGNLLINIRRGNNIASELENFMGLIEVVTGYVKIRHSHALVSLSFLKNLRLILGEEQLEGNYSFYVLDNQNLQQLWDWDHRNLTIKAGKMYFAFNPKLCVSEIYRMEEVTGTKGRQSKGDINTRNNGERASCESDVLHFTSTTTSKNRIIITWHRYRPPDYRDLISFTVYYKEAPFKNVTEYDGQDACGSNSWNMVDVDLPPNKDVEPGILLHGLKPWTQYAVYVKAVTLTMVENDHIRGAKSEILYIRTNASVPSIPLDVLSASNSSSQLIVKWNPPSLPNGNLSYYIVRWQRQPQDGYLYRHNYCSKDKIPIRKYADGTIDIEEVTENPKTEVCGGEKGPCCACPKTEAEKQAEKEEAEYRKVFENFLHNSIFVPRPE
Chain of Insulin-like growth factor 1 receptor (P08069 741-1367 limits assumed): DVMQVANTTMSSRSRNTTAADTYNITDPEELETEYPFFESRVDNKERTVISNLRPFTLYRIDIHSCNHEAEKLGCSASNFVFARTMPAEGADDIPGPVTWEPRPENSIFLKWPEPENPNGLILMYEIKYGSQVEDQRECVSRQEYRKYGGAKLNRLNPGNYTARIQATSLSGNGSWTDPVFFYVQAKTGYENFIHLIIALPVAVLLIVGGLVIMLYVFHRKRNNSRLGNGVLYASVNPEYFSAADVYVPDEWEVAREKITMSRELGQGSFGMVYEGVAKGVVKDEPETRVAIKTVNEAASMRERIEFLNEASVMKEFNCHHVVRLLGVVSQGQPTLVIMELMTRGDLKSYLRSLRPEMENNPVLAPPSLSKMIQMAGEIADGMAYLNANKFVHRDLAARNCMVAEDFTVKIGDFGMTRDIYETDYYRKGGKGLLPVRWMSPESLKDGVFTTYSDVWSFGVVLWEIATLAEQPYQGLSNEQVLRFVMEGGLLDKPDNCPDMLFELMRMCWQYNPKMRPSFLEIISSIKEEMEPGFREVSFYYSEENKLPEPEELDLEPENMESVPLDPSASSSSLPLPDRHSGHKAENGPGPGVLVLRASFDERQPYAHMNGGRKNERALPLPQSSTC

[17] = biological target: Tyrosine-protein kinase JAK2 (Homo sapiens, UniProt O60674); assay: Inhibition of Janus kinase 2
Chain of Tyrosine-protein kinase JAK2 (O60674 whole entry): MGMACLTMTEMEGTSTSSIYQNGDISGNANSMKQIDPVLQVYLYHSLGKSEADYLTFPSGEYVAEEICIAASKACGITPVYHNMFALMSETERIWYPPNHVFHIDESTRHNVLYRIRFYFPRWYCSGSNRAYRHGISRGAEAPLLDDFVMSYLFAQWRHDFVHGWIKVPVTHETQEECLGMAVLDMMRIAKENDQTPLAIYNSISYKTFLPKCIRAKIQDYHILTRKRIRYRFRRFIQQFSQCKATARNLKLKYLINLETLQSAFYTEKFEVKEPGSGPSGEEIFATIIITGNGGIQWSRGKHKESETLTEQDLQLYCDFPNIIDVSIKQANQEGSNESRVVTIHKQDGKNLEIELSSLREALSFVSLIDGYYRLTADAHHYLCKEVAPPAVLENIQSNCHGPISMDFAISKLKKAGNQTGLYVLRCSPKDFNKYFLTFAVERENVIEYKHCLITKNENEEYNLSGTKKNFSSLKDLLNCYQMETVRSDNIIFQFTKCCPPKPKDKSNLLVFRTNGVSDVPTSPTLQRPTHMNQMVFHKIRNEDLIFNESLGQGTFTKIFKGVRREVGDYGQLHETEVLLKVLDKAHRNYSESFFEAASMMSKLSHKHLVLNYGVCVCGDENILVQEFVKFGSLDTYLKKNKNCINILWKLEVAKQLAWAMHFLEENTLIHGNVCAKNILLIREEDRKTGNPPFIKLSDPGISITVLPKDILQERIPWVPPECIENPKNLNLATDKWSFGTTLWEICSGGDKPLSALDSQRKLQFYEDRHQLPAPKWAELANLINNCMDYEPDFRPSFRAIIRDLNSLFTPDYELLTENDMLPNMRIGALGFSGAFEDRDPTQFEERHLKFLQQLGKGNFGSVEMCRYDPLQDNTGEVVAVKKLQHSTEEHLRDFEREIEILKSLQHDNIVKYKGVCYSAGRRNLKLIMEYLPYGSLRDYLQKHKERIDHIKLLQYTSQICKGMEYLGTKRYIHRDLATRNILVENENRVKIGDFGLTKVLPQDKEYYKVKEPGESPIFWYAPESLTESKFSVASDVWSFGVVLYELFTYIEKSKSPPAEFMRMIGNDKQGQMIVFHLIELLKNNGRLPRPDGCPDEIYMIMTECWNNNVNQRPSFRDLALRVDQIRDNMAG

[18] = biological target: Tyrosine-protein kinase SYK (Homo sapiens) (UniProt P43405); assay: Inhibition of Syk tyrosine kinase at 10 uM
[19] = Inhibition of Collagen production; format: functional
[20] = biological target: T1, Platelet-derived growth factor receptor; assay: Inhibition of Platelet-derived growth factor receptor at 1 uM; format: protein-complex assay

Compound: COc1cc2ncc(N[C@@H]3CC4CC3C[C@H]4O)nc2cc1OC (stereo partly drawn)
IC50 [1]: 164 nM
IC50 [2]: 24 nM

Compound: COc1cc2cc(-c3ccsc3)cnc2cc1OC
bioavailability [3]: 49%
bioavailability [4]: 21%

Compound: COc1cc2ncc(N3C(=O)C4CCC3CC4)nc2cc1OC
inhibition [5]: 14%

Compound: COc1cc2ncc(NC3CCCC(N)C3)nc2cc1OC (stereo not drawn)
inhibition [20]: -9%

Compound: COc1cc2ncc(NC3CCCCC3)nc2cc1OC
bioavailability [3]: 17%
bioavailability [4]: 16%

Compound: COc1cc2ncc(N[C@@H]3CC[C@H](O)[C@@H](C)C3)nc2cc1OC
IC50 [1]: 134 nM
IC50 [2]: 18 nM

Compound: COc1cc2ncc(NC3CCC(C(=O)N4CCN(C)CC4)CC3)nc2cc1OC (stereo not drawn)
inhibition [20]: 10%

Compound: COc1cc2ncc(N[C@H]3CC[C@@H](O)[C@H](C)C3)nc2cc1OC
IC50 [1]: > 10000 nM
inhibition [20]: 5%

The next lines start with the values.

IC50 [2]: 3100 nM
Compound: CNC(=O)C1CCC(Nc2cnc3cc(OC)c(OC)cc3n2)CC1 (stereo not drawn)

inhibition [6]: 0%
bioavailability [7]: 72%
inhibition [8]: 3%
IC50 [9]: > 50000 nM
IC50 [10]: > 50000 nM
bioavailability [11]: 82%
inhibition [12]: 2%
inhibition [13]: 7%
inhibition [14]: 17%
inhibition [15]: 0%
IC50 [16]: > 10000 nM
IC50 [17]: > 50000 nM
inhibition [18]: 54%
IC50 [19]: 389 nM
Compound: COc1cc2ncc(N[C@H]3CC[C@H](O)CC3)nc2cc1OC

IC50 [2]: 345 nM
Compound: COc1cc2ncc(N[C@H]3CC[C@H](C(=O)OC)CC3)nc2cc1OC

IC50 [2]: 930 nM
Compound: COc1cc2ncc(NC3CCC(C(N)=O)CC3)nc2cc1OC (stereo not drawn)

IC50 [2]: 28 nM
Compound: COc1cc2ncc(N[C@H]3CC[C@@H](C(=O)OC)CC3)nc2cc1OC

IC50 [2]: 49 nM
Compound: COC(=O)C1CCC(Nc2cnc3cc(OC)c(OC)cc3n2)CC1 (stereo not drawn)

inhibition [20]: 15%
Compound: COc1cc2ncc(NC3CCC(C(=O)O)CC3)nc2cc1OC (stereo not drawn)
